According to article PMC11674800, “Second-Generation Antipsychotics Induce Metabolic Disruption in Adipose Tissue-Derived Mesenchymal Stem Cells Through an aPKC-Dependent Pathway” (Cells, 2024):
Blank lines part the entries; values can stand above or below the compound they belong to. Numbered stars: 1 amine (or outer) side, 2 acyl side, 3 side chain; on linkers, the order of the positions; unused ones are H or OH. Bridge positions count the residues as written; N and C are the ends. Square brackets hold non-standard residues; d marks the D form. Peptide text beside a SMILES is read from it. X1 = CC(=O)NC(C(=O)OC(C(C)C)C(N[*:1])C(=O)[*:2])C(O)C(C)C; PhLac = O=C(O)[CH](O)Cc1ccccc1; NMeT = CN[CH](C(=O)O)[CH](C)O; NMeA = CN[CH](C)C(=O)O; NMeDha = C=C(NC)C(=O)O

Columns and labels:
ADSCs [1] = assay: Acidic vesicle quantification (Lysotracker); format: cell-based, human; conditions: for effect of co-treatment on acidic vesicle accumulation in clozapine-treated cells: clozapine 5 µM; for effect of co-treatment on acidic vesicle accumulation in olanzapine-treated cells / reduction of olanzapine-induced accumulation of acidic vesicles: olanzapine 5 μM; for reduction of olanzapine-induced accumulation of acidic vesicles: plus inhibitor 10 μM
Method: After treatment, the medium was removed, and the cells were stained with 50 nM Lysotracker Deep Red (Invitrogen, Waltham, MA, USA) and 5 μg/mL Hoechst 33342 (Sigma). Staining was conducted in the dark at 37 °C for 30 min. Fluorescence signals were captured using a FLoid Cell Imaging Station (Life Technology, Carlsbad, CA, USA). The ratio of Lysotracker red signal to blue nuclear signal was quantified using ImageJ software. For acidic vesicle rescue experiments, ADSCs were plated at a concentration of 10,000 cells per well in 48-well plates.

3T3L1 cells = assay: PA accumulation in cells transfected with DOCK2-Pii; format: cell-based, mouse; conditions: olanzapine 5 μM, 16 h, plus inhibitor
Method: Transfection was carried out using Lipofectamine 3000 (Thermo Fisher Scientific, Waltham, MA, USA), following the manufacturer’s instructions. The cells were incubated with the plasmid for 24 h to ensure successful transfection and plasmid expression and were used for experiments 48 h post-transfection.

TFEB = TFEB nuclear localization (confocal microscopy); format: cell-based, human; conditions: olanzapine 5 μM plus inhibitor
Method: (§1) For INSRβ endocytosis experiments, the cells were stimulated with 50 ng/mL insulin for 15 min. For transferrin endocytosis experiments, the cells were incubated with 25 μg/mL Transferrin Texas Red for 5 min. After treatment, the cells were washed with PBS and fixed with 4% PFA for 10 min at room temperature, followed by an additional PBS wash. The cells were then permeabilized by incubating them with cold HEPES-Triton X-100 buffer for 5 min at 4 °C. After permeabilization, the cells were incubated with primary antibodies for 30 min, followed by incubation with Alexa Fluor 488- or 546-conjugated secondary antibodies (Invitrogen, Waltham, MA, USA) and phalloidin, labeled with either Alexa Fluor 546 or 633 (Invitrogen Waltham, MA, USA) for 30 min. After incubation, coverslips were mounted on glass slides using a mounting medium. Images were acquired using a confocal microscope (Leica TCS SP8, Wetzlar, Germany) and analyzed using ImageJ (v 1.52a) software in order to quantify and analyze the fluorescence signals.

PKCζ = assay: PKC activation (Western blot, P-PKCζ T560 immunofluorescence); format: cell-based, human; conditions: 16 h
Method: (§2) After treatments, whole-cell lysates were prepared using RIPA lysis buffer supplemented with protease inhibitors (AEBSF, aprotinin, bestatin, E-64, EDTA, leupeptin, Sigma-Aldrich, Saint Louis, MO, USA) and orthovanadate (Sigma-Aldrich, Saint Louis, MO, USA). The proteins in the lysates were collected and quantified using the Pierce BCA protein assay kit (Thermo Fisher Scientific, Waltham, MA, USA). Subsequently, the proteins were denatured by heating at 95 °C for 5 min in the presence of 2% Sodium Dodecyl Sulfate (SDS, Sigma-Aldrich, Saint Louis, MO, USA), 150 mM dithiothreitol (DTT, Sigma-Aldrich, Saint Louis, MO, USA), and 0.01% bromophenol blue (Sigma-Aldrich, Saint Louis, MO, USA). The samples were then analyzed using SDS-PAGE (SDS-Polyacrylamide Gel Electrophoresis) and Western blotting (WB).
as §1

Gas receptors = test system: Gas receptors; design: method as in PMID 33152337; conditions: acts as a suramin analog; cited from earlier work
ADSCs [2] = assay: Vacuolization assay; format: cell-based, human; conditions: 5 μM, 4 h
Method: After 4 h, pictures were acquired using a phase contrast microscope (DMi1, Leica, Wetzlar, Germany).

LC3B = assay: Autophagy induction (LC3B Western blot, LAMP1/LC3B colocalization); format: cell-based, human; conditions: 16 h treatment
Method: as §2, §1

ADSCs [3] = conditions: 7 days; 1 to 50 μM
ADSCs [4] = assay: Phospholipidosis assay (LipidTox Green); conditions: 5 μM, 16 h
Method: The cells were stained with 1X LipidTox Green (Thermo Fisher Scientific, Waltham, MA, USA) for 16 h to visualize lipid content. […] The cells were then washed with PBS and fixed with 4% paraformaldehyde for 15 min in the dark.

Compound: Cn1cnc(N)c2ncnc1-2 [3-MA, 3-methyladenine]
effect of co-treatment on acidic vesicle accumulation in clozapine-treated cells (ADSCs [1]; 16 h, plus inhibitor): significantly reduced
effect of co-treatment on acidic vesicle accumulation in olanzapine-treated cells (ADSCs [1]; 16 h, plus inhibitor): not seen

Compound: CC1CCc2c(cc(Br)c(F)c2Br)N1C=O (centres unmarked) [CE3F4]
reduction of olanzapine-induced accumulation of acidic vesicles (ADSCs [1]; 16 h): at least 50%
effect of co-treatment on PA levels in olanzapine-treated cells (3T3L1 cells): markedly reduced

Compound: C[C@@H]1C[C@@H]([C@H](O)CC2CC(=O)NC(=O)C2)C(=O)[C@@H](C)C1 [CHX, cycloheximide]
effect of co-treatment on acidic vesicle accumulation (Lysotracker) in both olanzapine- and clozapine-treated cells (ADSCs [1]; SGAs 5 µM, 16 h, plus inhibitor): significant reduction

Compound: O=C(NCCN1CCC(n2c(=O)[nH]c3ccccc32)CC1)c1cc2cc(F)ccc2[nH]1 [FIPI]
effect of co-treatment on acidic vesicle accumulation in olanzapine-treated cells (ADSCs [1]; 16 h, plus inhibitor): significantly reduced
effect of co-treatment on PA levels in olanzapine-treated cells (3T3L1 cells): significantly reduced

Compound: CN(C)CCCn1cc(C2=C(c3c[nH]c4ccccc34)C(=O)NC2=O)c2ccccc21 [Go6850]
effect of co-treatment on acidic vesicle accumulation in clozapine-treated cells (ADSCs [1]; 16 h, plus inhibitor): only partially reduced

Compound: CN1CCN(C(=O)C2C(C(=O)O)[C@H]3CC[C@@H]2O3)CC1 (some centres unmarked) [LB100]
effect of co-treatment on acidic vesicle accumulation in olanzapine-treated cells (ADSCs [1]; 16 h, plus inhibitor): significant reduction
effect of co-treatment on TFEB nuclear localization induced by olanzapine (TFEB): complete abrogation

Compound: Cc1nc2sccn2c(=O)c1CCN1CCC(=C(c2ccccc2)c2ccc(F)cc2)CC1 [R59022]
effect of co-treatment on acidic vesicle accumulation in olanzapine-treated cells (ADSCs [1]; 16 h, plus inhibitor): did not affect
effect of co-treatment on PA levels in olanzapine-treated cells (3T3L1 cells): did not affect

Compound: Nc1ncnc2c1ncn2C1CCCO1 (centres unmarked) [SQ22]
reduction of olanzapine-induced accumulation of acidic vesicles (ADSCs [1]; 16 h): at least 50%

Compound: C=C1C(=O)NC(C)C(=O)N(C)C(C)C(=O)NC(C(OC(=O)C(NC(C)=O)C(O)C(C)C)C(C)C)C(=O)N(C)C(C(C)OC)C(=O)OC(C)C(NC(C)=O)C(=O)OC(Cc2ccccc2)C(=O)N1C (centres unmarked) [YM254890] (Ac-T[PhLac][NMeDha]A[NMeA][X1][NMeT](Me); ester 1-C; configuration not given here)
effect of co-treatment on acidic vesicle accumulation in olanzapine-treated cells (ADSCs [1]; 16 h, plus inhibitor): strongest effect
reduction of olanzapine-induced accumulation of acidic vesicles (ADSCs [1]; 16 h): at least 50%
PKCζ phosphorylation in olanzapine-treated cells, co-treatment (PKCζ; olanzapine 5 μM, plus inhibitor): diminished
effect of co-treatment on PA levels in olanzapine-treated cells (3T3L1 cells): markedly reduced
concentrations blocking Gas receptors (Gas receptors): below 10 μM

Compound: CN1CCN(C2=Nc3cc(Cl)ccc3Nc3ccccc32)CC1 [clozapine]
acidic compartment accumulation (Lysotracker staining) (ADSCs [1]; 0.5-10 µM, 24 h, 72 h, 7 days): progressive time- and dose-dependent increase
concentrations at which acidic compartment accumulation was observed (ADSCs [1]; ADSCs): below 1 µM
vacuolization induction (ADSCs [2]): absent
colocalization of LAMP1 with LC3B (LC3B): increased colocalization
conversion of LC3B-I to LC3B-II (LC3B): significantly increased
canonical PKCs (cPKCs) and atypical PKCζ activation state (PKCζ; 5 μM, Western blot): activation
concentrations showing significant toxicity (ADSCs [3]): above 25 μM

vacuolization induction (ADSCs [2]): prominently observed
Compound: CC(C)(C)c1ccc(C(=O)CCCN2CCC(OC(c3ccccc3)c3ccccc3)CC2)cc1 [ebastine]

vacuolization induction (ADSCs [2]): prominently observed
Compound: CNCCC(Oc1ccc(C(F)(F)F)cc1)c1ccccc1 (centres unmarked) [fluoxetine]
phospholipidosis induction (ADSCs [4]): prominently observed

Compound: Cc1ccc(C(=O)Nc2ccc(S(=O)(=O)O)c3cc(S(=O)(=O)O)cc(S(=O)(=O)O)c23)cc1NC(=O)c1cccc(NC(=O)Nc2cccc(C(=O)Nc3cc(C(=O)Nc4ccc(S(=O)(=O)O)c5cc(S(=O)(=O)O)cc(S(=O)(=O)O)c45)ccc3C)c2)c1 [suramin]
reduction of olanzapine-induced accumulation of acidic vesicles (ADSCs [1]; 16 h): at least 50%
